In experiment [1] the target is T1, wt human TYK2, catalytic site (Homo sapiens, UniProt P29597).
T1 construct: wt human TYK2, catalytic site; purchased SignalChem
T1 sequence (P29597 897-1176 limits assumed): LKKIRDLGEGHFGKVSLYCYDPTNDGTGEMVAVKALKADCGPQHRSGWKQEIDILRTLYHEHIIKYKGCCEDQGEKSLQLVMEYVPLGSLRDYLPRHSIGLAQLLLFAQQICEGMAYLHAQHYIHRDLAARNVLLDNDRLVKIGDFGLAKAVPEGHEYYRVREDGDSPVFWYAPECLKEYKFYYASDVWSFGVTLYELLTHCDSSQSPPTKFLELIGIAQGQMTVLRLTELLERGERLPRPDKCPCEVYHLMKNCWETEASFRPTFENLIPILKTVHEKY
The experiment can be described thus: HTRF KinEASE assay, TYK2. The experiment is classed as biochemical. As to conditions: 1 μM ATP; read-out: IC50, Activity Toward TYK2. Summed up: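 HTRF KinEASE-TK readout with 1 μM biotinylated TK substrate in 1× kinase buffer, ≥30 min at room temperature, then antibody/streptavidin-XL665 detection for 60 min. TYK2 at 2 nM with 1 μM ATP; JAK2 at 1 nM with 100 μM ATP. Analysis uses emission ratios.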

Experiment [2] has as its target T2, wt human LRRK2, catalytic site (Homo sapiens, UniProt Q5S007).
T2 construct: 5 nM wt human LRRK2, catalytic site; purchased ThermoFisher
The experiment can be described thus: TR-FRET LanthaScreen Eu Kinase Binding Assay, LRRK2 wt. Conditions: one range stated for wt and G2019, read-out: IC50, Activity Toward LRRK2(Wt). The essentials: (§1)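 Tracer-displacement binding: compound mixed with kinase/Eu-antibody and Kinase Tracer 236 in 1× Kinase Buffer A, 1 h at room temperature, then TR-FRET emission ratio read. LRRK2 (wt or G2019S) 5 nM with 2 nM Eu-anti-GST, 10 nM tracer; NUAK1 8 nM with 2 nM Eu-anti-His, 5 nM tracer.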

The target in experiment [3] is T3, G2019S human LRRK2, catalytic site (Homo sapiens, UniProt Q5S007, G2019S).
T3 construct: G2019S human LRRK2, catalytic site; purchased ThermoFisher
T3 sequence (Q5S007 970-2527 G2019S limits assumed): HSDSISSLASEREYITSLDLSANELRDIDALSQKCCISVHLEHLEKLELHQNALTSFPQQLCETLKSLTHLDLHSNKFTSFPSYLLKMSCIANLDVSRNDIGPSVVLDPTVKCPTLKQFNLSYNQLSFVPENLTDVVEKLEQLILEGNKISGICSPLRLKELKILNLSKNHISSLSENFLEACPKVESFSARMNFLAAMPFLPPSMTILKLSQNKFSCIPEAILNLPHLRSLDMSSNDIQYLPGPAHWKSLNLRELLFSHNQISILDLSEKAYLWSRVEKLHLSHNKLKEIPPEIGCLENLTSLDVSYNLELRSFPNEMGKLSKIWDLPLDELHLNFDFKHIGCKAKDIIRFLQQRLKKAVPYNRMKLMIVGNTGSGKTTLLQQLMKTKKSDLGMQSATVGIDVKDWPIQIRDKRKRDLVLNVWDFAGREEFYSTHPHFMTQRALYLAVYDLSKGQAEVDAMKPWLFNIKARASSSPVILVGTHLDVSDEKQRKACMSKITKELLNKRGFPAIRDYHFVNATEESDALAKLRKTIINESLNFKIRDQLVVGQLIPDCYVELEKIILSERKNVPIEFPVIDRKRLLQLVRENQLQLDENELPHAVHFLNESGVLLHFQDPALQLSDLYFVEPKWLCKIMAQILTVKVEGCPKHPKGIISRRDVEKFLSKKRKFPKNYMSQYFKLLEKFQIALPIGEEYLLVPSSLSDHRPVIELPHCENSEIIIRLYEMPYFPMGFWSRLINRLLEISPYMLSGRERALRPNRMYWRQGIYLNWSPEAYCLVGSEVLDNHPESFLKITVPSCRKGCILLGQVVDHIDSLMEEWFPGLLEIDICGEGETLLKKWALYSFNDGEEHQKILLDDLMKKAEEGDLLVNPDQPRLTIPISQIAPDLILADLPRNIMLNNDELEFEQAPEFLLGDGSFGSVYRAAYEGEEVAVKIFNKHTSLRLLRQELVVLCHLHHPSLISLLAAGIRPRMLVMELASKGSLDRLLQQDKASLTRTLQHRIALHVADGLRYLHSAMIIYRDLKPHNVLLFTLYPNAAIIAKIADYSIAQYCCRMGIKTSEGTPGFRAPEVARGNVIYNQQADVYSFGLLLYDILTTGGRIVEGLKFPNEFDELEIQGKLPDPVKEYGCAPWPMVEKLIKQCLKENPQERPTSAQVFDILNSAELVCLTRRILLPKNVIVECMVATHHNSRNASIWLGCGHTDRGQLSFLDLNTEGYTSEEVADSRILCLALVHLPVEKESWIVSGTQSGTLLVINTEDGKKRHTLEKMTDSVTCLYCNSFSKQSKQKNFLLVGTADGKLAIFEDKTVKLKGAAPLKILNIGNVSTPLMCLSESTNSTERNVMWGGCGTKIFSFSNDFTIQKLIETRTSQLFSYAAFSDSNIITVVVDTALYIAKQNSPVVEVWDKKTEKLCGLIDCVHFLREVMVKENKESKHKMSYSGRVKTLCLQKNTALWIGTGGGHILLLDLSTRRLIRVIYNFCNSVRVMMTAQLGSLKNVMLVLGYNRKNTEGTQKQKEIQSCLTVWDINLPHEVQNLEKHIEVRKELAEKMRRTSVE
The experiment can be described thus: TR-FRET LanthaScreen Eu Kinase Binding Assay, LRRK2 G2019S. As to conditions: LRRK2(G2019); one range stated for wt and G2019; read-out: IC50, Activity Toward LRRK2(G2019). Summed up:
as §1
(Time-resolved FRET reads energy transfer from a long-lived donor to a nearby acceptor.)

The target of experiment [4] is T4, wt human NUAK1, full length (Homo sapiens, UniProt O60285).
T4 construct: 8 nM wt human NUAK1, full length (ThermoFisher/USA); purchased ThermoFisher
T4 sequence (O60285 1-661): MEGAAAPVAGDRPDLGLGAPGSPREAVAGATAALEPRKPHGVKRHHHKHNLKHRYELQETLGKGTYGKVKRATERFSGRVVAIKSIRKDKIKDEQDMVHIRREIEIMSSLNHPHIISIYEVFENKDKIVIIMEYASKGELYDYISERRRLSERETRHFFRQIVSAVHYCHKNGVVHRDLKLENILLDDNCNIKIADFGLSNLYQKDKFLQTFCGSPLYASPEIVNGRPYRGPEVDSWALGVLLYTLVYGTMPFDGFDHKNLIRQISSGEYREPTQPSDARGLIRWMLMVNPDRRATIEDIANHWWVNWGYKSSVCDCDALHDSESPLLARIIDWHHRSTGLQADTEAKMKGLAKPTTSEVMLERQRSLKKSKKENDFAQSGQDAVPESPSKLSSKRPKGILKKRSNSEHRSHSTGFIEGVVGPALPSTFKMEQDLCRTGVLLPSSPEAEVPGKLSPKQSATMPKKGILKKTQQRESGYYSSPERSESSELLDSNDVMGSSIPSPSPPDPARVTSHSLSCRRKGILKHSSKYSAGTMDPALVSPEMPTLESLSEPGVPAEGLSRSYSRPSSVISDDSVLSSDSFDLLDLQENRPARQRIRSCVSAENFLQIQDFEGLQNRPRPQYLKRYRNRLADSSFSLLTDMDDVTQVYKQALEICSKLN
The experiment can be described thus: TR-FRET LanthaScreen Eu Kinase Binding Assay, NUAK1. Conditions: read-out: IC50, Activity Toward NUAK1. Here is the method:
The basic protocol for TR-FRET LanthaScreen Eu Kinase Binding Assay inhibitor studies were performed as follows. LanthaScreen Kinase Binding Assays (ThermoFisher/USA) to evaluate inhibitors were performed by addition of 5 μL of test compound in corresponding DMSO dilutions/5 μl of kinase/antibody mixture, 5 μL of tracer into 384 well small volume plates. After incubation for 1 hour at room temperature, plates were read. Data analysis of emission ratios was according LanthaScreen Eu Kinase Binding Assay protocol.
Kinase and assay components were adjusted to final concentrations according to kit protocol. For LRRK2: 5 nM wt human LRRK2, catalytic site, or G2019S human LRRK2, catalytic site (ThermoFisher/USA), 2 nM Eu-Anti-GST Antibody, 10 nM Kinase Tracer 236 in 1× Kinase Buffer A. For NUAK1: 8 nM wt human NUAK1, full length (ThermoFisher/USA), 2 nM Eu-Anti-His Antibody, 5 nM Kinase Tracer 236 in 1× Kinase Buffer A.

Experiment [5] concerns the target T5, wt human JAK1, catalytic site (Homo sapiens, UniProt P23458).
T5 construct: wt human JAK1, catalytic site; purchased ThermoFisher
The experiment can be described thus: HTRF KinEASE assay, JAK1. The experiment is classed as biochemical. As to conditions: 2.5 μM ATP; read-out: IC50, Activity Toward JAK1. The essentials: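 Two-step HTRF KinEASE assay: compound, kinase/biotinylated TK substrate and ATP were incubated at least 30 min at room temperature. Antibody plus streptavidin-XL665 was then added and plates were read after 60 min. Inhibition was derived from emission ratios according to the kit protocol.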

T5 sequence (P23458 875-1153 limits assumed): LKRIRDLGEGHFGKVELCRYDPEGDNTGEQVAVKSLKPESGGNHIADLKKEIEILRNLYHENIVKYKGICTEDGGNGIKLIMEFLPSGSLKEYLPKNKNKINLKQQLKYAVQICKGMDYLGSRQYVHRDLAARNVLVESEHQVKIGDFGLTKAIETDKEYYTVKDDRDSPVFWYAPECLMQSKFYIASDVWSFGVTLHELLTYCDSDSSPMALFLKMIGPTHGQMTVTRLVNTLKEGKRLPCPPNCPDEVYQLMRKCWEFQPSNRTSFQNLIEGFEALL
T2 sequence (Q5S007 970-2527 limits assumed): as the sequence (Q5S007 970-2527 G2019S limits assumed) above, with S1050G counted along it

Usually IC50 stands for the concentration at which inhibition is half-maximal. As for `NC(=O)c1nn(-c2c(F)cccc2C(F)(F)F)cc1Nc1ccc(C(=O)N2CC3(CCC3)C2)cc1` [compound 61, 4-((4-(2-azaspiro[3.3]heptane-2-carbonyl)phenyl)amino)-1-(2-fluoro-6-(trifluoromethyl)phenyl)-1H-pyrazole-3-carboxamide], the IC50 is 10 to 100 nM in experiment [1]; 100 to 1000 nM in experiment [2]; 100 to 1000 nM in experiment [3]; 100 to 1000 nM in experiment [4]; 100 to 1000 nM in experiment [5].

In the case of `NC(=O)c1nn(-c2c(F)cccc2F)cc1Nc1ccc(C(=O)N2CCOCC2)nc1` [compound 30, 1-(2,6-difluorophenyl)-4-((6-(morpholine-4-carbonyl)pyridin-3-yl)amino)-1H-pyrazole-3-carboxamide], the IC50 lay in the range of 10 to 100 nM in experiment [1]; 100 to 1000 nM in experiment [2]; 100 to 1000 nM in experiment [3]; 100 to 1000 nM in experiment [4]; 100 to 1000 nM in experiment [5].

With `NC(=O)c1nn(-c2c(Cl)cccc2Cl)cc1Nc1ccc(C(=O)N2CC(C(N)=O)C2)cc1` [compound 453, 4-[4-(3-Carbamoyl-azetidine-1-carbonyl)-phenylamino]-1-(2,6-dichloro-phenyl)-1H-pyrazole-3-carboxylic acid amide], the IC50 is less than 10 nM in experiment [1]; 100 to 1000 nM in experiment [2]; 100 to 1000 nM in experiment [3]; 100 to 1000 nM in experiment [4]; less than 10 nM in experiment [5].

As to `NC(=O)c1nn(-c2c(F)cccc2Cl)cc1Nc1ccc(C(=O)N2CCOCC2)cn1` [compound 68, 1-(2-chloro-6-fluorophenyl)-4-((5-(morpholine-4-carbonyl)pyridin-2-yl)amino)-1H-pyrazole-3-carboxamide], the IC50 in experiment [1] lay in the range of 10 to 100 nM; in experiment [2], 100 to 1000 nM; in experiment [3], 100 to 1000 nM; in experiment [4] it was 100 to 1000 nM; in experiment [5], 100 to 1000 nM.

Turning to `Cc1ccn(-c2ccc(Nc3cn(-c4c(F)cccc4Cl)nc3C(N)=O)cc2)n1` [compound 232, 1-(2-chloro-6-fluorophenyl)-4-((4-(3-methyl-1H-pyrazol-1-yl)phenyl)amino)-1H-pyrazole-3-carboxamide], the IC50 in experiment [1] fell in the range of 10 to 100 nM; in experiment [2], 100 to 1000 nM; in experiment [3] it was 100 to 1000 nM; in experiment [4], 100 to 1000 nM; in experiment [5], 10 to 100 nM.

For `CC(C)n1ncnc1-c1ccc(Nc2cn(-c3c(F)cccc3F)nc2C(N)=O)cc1` [compound 309, 1-(2,6-difluorophenyl)-4-((4-(1-isopropyl-1H-1,2,4-triazol-5-yl)phenyl)amino)-1H-pyrazole-3-carboxamide], the half-maximal inhibitory concentration (IC50) in experiment [1] lay in the range of 100 to 1000 nM; in experiment [2], 10 to 100 nM; in experiment [3], 10 to 100 nM; in experiment [4], 100 to 1000 nM; in experiment [5], 100 to 1000 nM.

As to `CCc1ccnn1-c1ccc(Nc2cn(-c3c(F)cccc3Cl)nc2C(N)=O)cc1` [compound 286, 1-(2-chloro-6-fluorophenyl)-4-((4-(5-ethyl-1H-pyrazol-1-yl)phenyl)amino)-1H-pyrazole-3-carboxamide], the IC50 is 10 to 100 nM in experiment [1]; 100 to 1000 nM in experiment [2]; 100 to 1000 nM in experiment [3]; 100 to 1000 nM in experiment [4]; 100 to 1000 nM in experiment [5].

With `NC(=O)c1nn(-c2c(F)cccc2Cl)cc1Nc1ccc(C(=O)N2CCCCC2)cc1` [compound 228, 1-(2-chloro-6-fluorophenyl)-4-((4-(piperidine-1-carbonyl)phenyl)amino)-1H-pyrazole-3-carboxamide], the IC50 lay within 10 to 100 nM in experiment [1]; 100 to 1000 nM in experiment [2]; 100 to 1000 nM in experiment [3]; 100 to 1000 nM in experiment [4]; 10 to 100 nM in experiment [5].

As for `NC(=O)c1nn(-c2c(F)cccc2Cl)cc1Nc1ccc(C(=O)N2CC3(CCC3)C2)cc1` [compound 54, 4-((4-(2-azaspiro[3.3]heptane-2-carbonyl)phenyl)amino)-1-(2-chloro-6-fluorophenyl)-1H-pyrazole-3-carboxamide], the IC50 lay in the range of 10 to 100 nM in experiment [1]; 100 to 1000 nM in experiment [2]; 100 to 1000 nM in experiment [3]; 100 to 1000 nM in experiment [4]; 100 to 1000 nM in experiment [5].

Consider `CN(C)[C@@H]1CCN(C(=O)c2ccc(Nc3cn(-c4c(Cl)cccc4Cl)nc3C(N)=O)cc2)C1` [compound 313, (R)-1-(2,6-dichlorophenyl)-4-((4-(3-(dimethylamino)pyrrolidine-1-carbonyl)phenyl)amino)-1H-pyrazole-3-carboxamide], for which the IC50 lay within 10 to 100 nM in experiment [1]; 100 to 1000 nM in experiment [2]; 100 to 1000 nM in experiment [3]; 100 to 1000 nM in experiment [4]; 10 to 100 nM in experiment [5].

For `CC(=O)N1CC(n2cc(C(F)(F)F)nc2-c2ccc(Nc3cn(-c4c(Cl)cccc4Cl)nc3C(N)=O)cc2)C1` [compound 342, 4-((4-(1-(1-acetylazetidin-3-yl)-4-(trifluoromethyl)-1H-imidazol-2-yl)phenyl)amino)-1-(2,6-dichlorophenyl)-1H-pyrazole-3-carboxamide], the IC50 is less than 10 nM in experiment [1]; 100 to 1000 nM in experiment [2]; 100 to 1000 nM in experiment [3]; 100 to 1000 nM in experiment [4]; 100 to 1000 nM in experiment [5].

`Cc1ccnnc1-c1ccc(Nc2cn(-c3c(F)cccc3Cl)nc2C(N)=O)cc1` [compound 56, 1-(2-chloro-6-fluorophenyl)-4-((4-(4-methylpyridazin-3-yl)phenyl)amino)-1H-pyrazole-3-carboxamide]: the IC50 in experiment [1] is 10 to 100 nM; in experiment [2], 10 to 100 nM; in experiment [3], 10 to 100 nM; in experiment [4] it was 100 to 1000 nM; in experiment [5], 100 to 1000 nM.

For `NC(=O)c1nn(-c2c(Cl)cccc2Cl)cc1Nc1ccc(C(=O)N2CCCCC2)cc1` [compound 82, 1-(2,6-dichlorophenyl)-4-((4-(piperidine-1-carbonyl)phenyl)amino)-1H-pyrazole-3-carboxamide], the IC50 lay within 10 to 100 nM in experiment [1]; 100 to 1000 nM in experiment [2]; 100 to 1000 nM in experiment [3]; 100 to 1000 nM in experiment [4]; 10 to 100 nM in experiment [5].

For `CN1CCC(N(C)C(=O)c2ccc(Nc3cn(-c4c(Cl)ccc(F)c4Cl)nc3C(N)=O)cc2)CC1` [compound 417, 1-(2,6-dichloro-3-fluorophenyl)-4-((4-(methyl(1-methylpiperidin-4-yl)carbamoyl)phenyl)amino)-1H-pyrazole-3-carboxamide], the IC50 in experiment [1] fell in the range of 10 to 100 nM; in experiment [2] it was 100 to 1000 nM; in experiment [3], 100 to 1000 nM; in experiment [4], 100 to 1000 nM; in experiment [5], 10 to 100 nM.

(Values after patent publication US20230373985A1 (Origenis Gmbh, priority 2020, published 2023).)
